Values after ≈ are worked out from the molar mass of the structure shown. Where two headings read alike, the source gives them in different places.
Experiments:
Format in all cases: cell-based
[1] = tested on: A. flavus ATCC204304; experiment: Antifungal activity test, MIC by broth microdilution (CLSI M38-A2); conditions: A. flavus ATCC204304, broth microdilution, 35° C., 24-48 hours, 100% inhibition
Procedure: (§1) The Minimum Inhibitory Concentration (MIC) values of the present compound against yeast and filamentous fungi were determined by broth microdilution assay according to the Clinical Laboratory Standards Institute (CLSI) guidelines outlined in documents M27-A3 and M38-A2. The medium used in the assay consisted of RPMI1640 (with glutamine, without bicarbonate) with 2% glucose and 0.165 mol/L morpholinepropanesulfonic acid (MOPS) with pH adjusted to 7.0 using 1 mol/L sodium hydroxide. The present compound was dissolved in dimethyl sulfoxide (DMSO). A series of two-fold dilutions were prepared in DMSO, and then 2 μL of the diluted compound was added to each well in 96-well sterile plates. Each inoculum was prepared by diluting a suspension of Candida spp. or a conidia suspension of Aspergillus spp. suspended in sterile saline solution, and then 200 μL was added to each well to a predetermined concentration using RPMI/MOPS (final concentration for each solution: approximately 1×10^3 cells/mL and approximately 1×10^4 CFU/mL). Plates of Candida spp. and Aspergillus spp. were incubated at 35° C. for 24-48 hours. The MIC was defined as the lowest concentration giving 100% inhibition compared to the growth control.

[2] = tested on: A. fumigatus ATCC204305; experiment: as above; conditions: A. fumigatus ATCC204305, broth microdilution, 35° C., 24-48 hours, 100% inhibition
Procedure: as §1

[3] = tested on: C. albicans ATCC90028; experiment: Antifungal activity test, MIC by broth microdilution (CLSI M27-A3); conditions: C. albicans ATCC90028, broth microdilution, 35° C., 24-48 hours, 100% inhibition
Procedure: as §1

[4] = tested on: red blood cells (5% RBC suspension); experiment: Test Example 2-1: in vitro hemolytic activity test (upper limit 50, 80, 100 or 200 μmol/L); conditions: read-out: hemolysis IC50
Procedure: Nephrotoxic potentials of the compounds of the present invention except the compounds whose X is —N(R^F)—CO—X^1 and X^1 is the group represented by formula (III) and T is —N(R^a5)— were investigated by in vitro hemolytic activity test under the condition, in that, the upper limit was 50 μmol/L, 80 μmol/L, 100 μmol/L, or 200 μmol/L as the required concentration to 50% of hemolysis (IC50).
Defibrinated sterile blood was centrifuged at 700×g for 3 minutes and, and the supernatant was removed for 100% of red blood cells. After the cleaning with physiological saline, the washed blood cells was suspended in the medium (Earle's balanced salt sodium, bicarbonate, 0.1 g/L L-glutamine without phenol red), and was diluted by 5% (5% RBC suspension).
The washed blood was diluted by 5% in water for injection (solution of complete hemolysis), and was used as the indication of optical density for complete hemolysis.
The compounds of the present invention solution in DMSO (several and doubling dilutions starting from 2.5 mmol/L, 4 mmol/L, 5 mmol/L, or 10 mmol/L), DMSO as the negative control, and Amphotericin B as the positive control were used, and each 5 μL of these was added in to a well of V-form 96 well type microplate.
Finally, the maximum concentration of the compounds of the present invention solution in DMSO was 50 μmol/L, 80 μmol/L, 100 μmol/L, or 200 μmol/L by adding 245 μL of the medium or 5% RBC suspension into the well.
Two hundred fifty μL of the solution of complete hemolysis was added into another well and the microplate was incubated at 37° C. in 5% of CO2 concentration for an hour.
After the incubation, each 100 μL of supernatants in wells was collected by centrifugation of the microplate at 300×g for 5 minutes and was located on a well of flat-form 96 well type microplate. An absorbance of each supernatant was measured at wavelength of 540 nm.
Percent hemolysis was calculated by using the followed equation. The required concentration to 50% of hemolysis (IC50) was calculated based on the percent hemolysis. […] Hemolysis (%)=(CR−VM)×100÷(VL−VR) Where:
CR: Absorbance of 5% RBC suspension incubated with the compounds of the present invention solution in DMSO
VM: Absorbance of medium incubated with the compounds of the present invention solution in DMSO
VL: Absorbance of solution of complete hemolysis
VR: Absorbance of 5% RBC suspension incubated with DMSO
The “hemolysis method” in the table means any tests the upper concentration of above IC50 are 50 μmol/L, 80 μmol/L, 100 μmol/L or 200 μmol/L. The “>50”, “>80”, “>100” or “>200” in the table means above IC50 value exceeded the each upper concentration.

[5] = Aspergillus flavus, read-out: MIC
[6] = Aspergillus fumigatus, read-out: MIC
[7] = Candida albicans, read-out: MIC
[8] = hemolysis method 50 (upper concentration 50 μmol/L), 5% RBC suspension, 37° C., one hour
[9] = Erythrocyte, 1 h, hemolysis method 50 (upper concentration 50 μmol/L), 5% RBC suspension, 37° C., one hour
[10] = hemolysis method 100 (upper concentration 100 μmol/L), 5% RBC suspension, 37° C., one hour

## C[C@@H]1[C@H](O)[C@@H](C)/C=C/C=C/C=C/C=C/C=C/C=C/C=C/[C@H](O[C@@H]2O[C@H](C)[C@@H](O)[C@H](N)[C@@H]2O)C[C@@H]2O[C@](O)(C[C@@H](O)C[C@@H](O)[C@H](O)CC[C@@H](O)C[C@@H](O)CC(=O)O[C@H]1C)C[C@H](O)[C@H]2NC(N)=O [I-36]
[1]; [5]
  MIC: 1 µg/mL (≈ 1.07 µM)
[2]; [6]
  MIC: 1 µg/mL (≈ 1.07 µM)
[3]; [7]
  MIC: 0.25 µg/mL (≈ 0.266 µM)

## CONC(=O)N[C@H]1[C@@H]2C[C@@H](O[C@@H]3O[C@H](C)[C@@H](O)[C@H](N)[C@@H]3O)/C=C/C=C/C=C/C=C/C=C/C=C/C=C/[C@H](C)[C@@H](O)[C@@H](C)[C@H](C)OC(=O)C[C@H](O)C[C@H](O)CC[C@@H](O)[C@H](O)C[C@H](O)C[C@](O)(C[C@@H]1O)O2 [I-59]
[1]; [5]
  MIC: 1 µg/mL (≈ 1.03 µM)
[2]; [6]
  MIC: 1 µg/mL (≈ 1.03 µM)
[3]; [7]
  MIC: 0.25 µg/mL (≈ 0.258 µM)

## C[C@@H]1[C@H](O)[C@@H](C)/C=C/C=C/C=C/C=C/C=C/C=C/C=C/[C@H](O[C@@H]2O[C@H](C)[C@@H](O)[C@H](N)[C@@H]2O)C[C@@H]2O[C@](O)(C[C@@H](O)C[C@@H](O)[C@H](O)CC[C@@H](O)C[C@@H](O)CC(=O)O[C@H]1C)C[C@H](O)[C@H]2NC(=O)NCCNC(=N)N [I-67]
[1]
  MIC: 1 µg/mL (≈ 0.977 µM)
[2]
  MIC: 1 µg/mL (≈ 0.977 µM)
[3]
  MIC: 0.25 µg/mL (≈ 0.244 µM)

## CCN(O)C(=O)N[C@H]1[C@@H]2C[C@@H](O[C@@H]3O[C@H](C)[C@@H](O)[C@H](N)[C@@H]3O)/C=C/C=C/C=C/C=C/C=C/C=C/C=C/[C@H](C)[C@@H](O)[C@@H](C)[C@H](C)OC(=O)C[C@H](O)C[C@H](O)CC[C@@H](O)[C@H](O)C[C@H](O)C[C@](O)(C[C@@H]1O)O2 [I-279]
[4]; [8]
  IC50: > 50 µM

## CCCN(O)C(=O)N[C@H]1[C@@H]2C[C@@H](O[C@@H]3O[C@H](C)[C@@H](O)[C@H](N)[C@@H]3O)/C=C/C=C/C=C/C=C/C=C/C=C/C=C/[C@H](C)[C@@H](O)[C@@H](C)[C@H](C)OC(=O)C[C@H](O)C[C@H](O)CC[C@@H](O)[C@H](O)C[C@H](O)C[C@](O)(C[C@@H]1O)O2 [I-280]
[4]; [8]
  IC50: > 50 µM

## CON(C)C(=O)N[C@H]1[C@@H]2C[C@@H](O[C@@H]3O[C@H](C)[C@@H](O)[C@H](N)[C@@H]3O)/C=C/C=C/C=C/C=C/C=C/C=C/C=C/[C@H](C)[C@@H](O)[C@@H](C)[C@H](C)OC(=O)C[C@H](O)C[C@H](O)CC[C@@H](O)[C@H](O)C[C@H](O)C[C@](O)(C[C@@H]1O)O2 [I-282]
[4]; [8]
  IC50: > 50 µM

## C[C@@H]1[C@H](O)[C@@H](C)/C=C/C=C/C=C/C=C/C=C/C=C/C=C/[C@H](O[C@@H]2O[C@H](C)[C@@H](O)[C@H](N)[C@@H]2O)C[C@@H]2O[C@](O)(C[C@@H](O)C[C@@H](O)[C@H](O)CC[C@@H](O)C[C@@H](O)CC(=O)O[C@H]1C)C[C@H](O)[C@H]2NC(=O)N1CCC1C(=O)O (some centres unmarked) [I-283]
[4]; [8]
  IC50: > 50 µM

## C[C@@H]1[C@H](O)[C@@H](C)/C=C/C=C/C=C/C=C/C=C/C=C/C=C/[C@H](O[C@@H]2O[C@H](C)[C@@H](O)[C@H](N)[C@@H]2O)C[C@@H]2O[C@](O)(C[C@@H](O)C[C@@H](O)[C@H](O)CC[C@@H](O)C[C@@H](O)CC(=O)O[C@H]1C)C[C@H](O)[C@H]2NC(=O)NC(C(=O)O)[C@H](C)O (some centres unmarked) [I-291]
[4]; [8]
  IC50: > 50 µM

## C[C@@H]1[C@H](O)[C@@H](C)/C=C/C=C/C=C/C=C/C=C/C=C/C=C/[C@H](O[C@@H]2O[C@H](C)[C@@H](O)[C@H](N)[C@@H]2O)C[C@@H]2O[C@](O)(C[C@@H](O)C[C@@H](O)[C@H](O)CC[C@@H](O)C[C@@H](O)CC(=O)O[C@H]1C)C[C@H](O)[C@H]2NC(=O)N(O)C[C@@H](O)C(=O)O [I-295]
[4]; [8]
  IC50: > 50 µM

## C[C@@H]1[C@H](O)[C@@H](C)/C=C/C=C/C=C/C=C/C=C/C=C/C=C/[C@H](O[C@@H]2O[C@H](C)[C@@H](O)[C@H](N)[C@@H]2O)C[C@@H]2O[C@](O)(C[C@@H](O)C[C@@H](O)[C@H](O)CC[C@@H](O)C[C@@H](O)CC(=O)O[C@H]1C)C[C@H](O)[C@H]2NC(=O)N1CC(O[C@H]2OC(CO)[C@@H](O)[C@H](O)C2O)C1 (some centres unmarked) [I-303]
[4]; [9]
  IC50: > 50 µM

## CNC(=O)N[C@H]1[C@@H]2C[C@@H](O[C@@H]3O[C@H](C)[C@@H](O)[C@H](NCc4ccc(N(C)C)cc4)[C@@H]3O)/C=C/C=C/C=C/C=C/C=C/C=C/C=C/[C@H](C)[C@@H](O)[C@@H](C)[C@H](C)OC(=O)C[C@H](O)C[C@H](O)CC[C@@H](O)[C@H](O)C[C@H](O)C[C@](O)(C[C@@H]1O)O2 [I-314]
[4]; [10]
  IC50: > 80 µM

## C[C@@H]1[C@H](O)[C@@H](C)/C=C/C=C/C=C/C=C/C=C/C=C/C=C/[C@H](O[C@@H]2O[C@H](C)[C@@H](O)[C@H](NC(=O)CN(C)C)[C@@H]2O)C[C@@H]2O[C@](O)(C[C@@H](O)C[C@@H](O)[C@H](O)CC[C@@H](O)C[C@@H](O)CC(=O)O[C@H]1C)C[C@H](O)[C@H]2NC(=O)NCCN(C)C [I-327]
[4]; [10]
  IC50: > 50 µM

## C[C@@H]1[C@H](O)[C@@H](C)/C=C/C=C/C=C/C=C/C=C/C=C/C=C/[C@H](O[C@@H]2O[C@H](C)[C@@H](O)[C@H](NCc3cccnc3N)[C@@H]2O)C[C@@H]2O[C@](O)(C[C@@H](O)C[C@@H](O)[C@H](O)CC[C@@H](O)C[C@@H](O)CC(=O)O[C@H]1C)C[C@H](O)[C@H]2NC(=O)NCCN(C)C [I-328]
[4]; [10]
  IC50: > 50 µM

## C[C@@H]1[C@H](O)[C@@H](C)/C=C/C=C/C=C/C=C/C=C/C=C/C=C/[C@H](O[C@@H]2O[C@H](C)[C@@H](O)[C@H](NC[C@@]3(O)OC[C@@H](O)[C@H](O)[C@@H]3O)[C@@H]2O)C[C@@H]2O[C@](O)(C[C@@H](O)C[C@@H](O)[C@H](O)CC[C@@H](O)C[C@@H](O)CC(=O)O[C@H]1C)C[C@H](O)[C@H]2NC(=O)NC[C@H](O)CO [I-368]
[4]; [9]
  IC50: > 50 µM

## C[C@@H]1[C@H](O)[C@@H](C)/C=C/C=C/C=C/C=C/C=C/C=C/C=C/[C@H](O[C@@H]2O[C@H](C)[C@@H](O)[C@H](N)[C@@H]2O)C[C@@H]2O[C@](O)(C[C@@H](O)C[C@@H](O)[C@H](O)CC[C@@H](O)C[C@@H](O)CC(=O)O[C@H]1C)C[C@H](O)[C@H]2c1nc(-c2ccc(N(C)C)cc2)no1 [I-390]
[4]; Erythrocyte, 1 h
  IC50: > 50 µM

## C[C@@H]1[C@H](O)[C@@H](C)/C=C/C=C/C=C/C=C/C=C/C=C/C=C/[C@H](O[C@@H]2O[C@H](C)[C@@H](O)[C@H](N)[C@@H]2O)C[C@@H]2O[C@](O)(C[C@@H](O)C[C@@H](O)[C@H](O)CC[C@@H](O)C[C@@H](O)CC(=O)O[C@H]1C)C[C@H](O)[C@H]2c1nc(-c2ccccc2)no1 [I-391]
[4]; [9]
  IC50: > 50 µM

## C[C@@H]1[C@H](O)[C@@H](C)/C=C/C=C/C=C/C=C/C=C/C=C/C=C/[C@H](O[C@@H]2O[C@H](C)[C@@H](O)[C@H](N)[C@@H]2O)C[C@@H]2O[C@](O)(C[C@@H](O)C[C@@H](O)[C@H](O)CC[C@@H](O)C[C@@H](O)CC(=O)O[C@H]1C)C[C@H](O)[C@H]2c1nc(-c2ccncc2)no1 [I-392]
[4]; [9]
  IC50: > 50 µM
